This note sets out measurements from ChEMBL document CHEMBL1138338, “Design, synthesis, and structure-activity relationships of a novel series of 5-alkylidenepyridazin-3(2H)-ones with a non-cAMP-based antiplatelet activity” (J Med Chem, 2007).

Activity calls are given as the source filed them. No cut-off for these calls is given here.

System in the first test: not listed separately
The experiment in a line: (§1) Inhibition of thrombin-induced platelet aggregation in human platelets after 5 mins by turbidimetric method. Type of test: functional, cell-based.
For orientation: IC50 means the concentration that gives 50% inhibition. Low readings indicate higher potency, high ones lower potency. `N#CC(C#N)=Cc1cnn(Cc2ccccc2)c(=O)c1` returned a 50% inhibitory concentration (IC50) of 126 µM.
On the same count and under the same terms, then `Cn1ncc(C=C(C#N)C#N)cc1=O`, with 475 µM; and `CCOC(=O)C(=Cc1cnn(Cc2ccccc2)c(=O)c1)C(=O)OCC`, with 3.62 µM; and `Cc1[nH]c(=O)c(C#N)cc1-c1ccncc1` [MILRINONE], with 4.7 µM.
Compound `O=C(OCc1ccccc1)C(=Cc1cnn(Cc2ccccc2)c(=O)c1)C(=O)OCc1ccccc1` displayed an IC50 of 1.36 µM.
Same read-out and setting: then `COC(=O)C(=Cc1cnn(Cc2ccccc2)c(=O)c1)C(=O)OC`, with 4.86 µM; and `Cn1ncc(C=C(C(=O)OC(C)(C)C)C(=O)OC(C)(C)C)cc1=O`, with 95 µM; and `CCOC(=O)C(=Cc1cnn(C)c(=O)c1)C(=O)OCC`, with 12.3 µM.
On the same count and under the same terms, under `CC(C)OC(=O)C(=Cc1cc(=O)n(C)nc1-c1ccccc1)C(=O)OC(C)C` stands 4.1 µM.
Turning to `O=C(OCc1ccccc1)C(=Cc1cc(=O)[nH]nc1-c1ccccc1)C(=O)OCc1ccccc1`, the IC50 was 1.8 µM.
Turning to `COC(=O)C(=Cc1cn[nH]c(=O)c1)C(=O)OC`, the IC50 came to 40.2 µM.
Still for that read-out and setting: then `COC(=O)C(=Cc1cc(=O)n(C)nc1-c1ccccc1)C(=O)OC`, with 9.2 µM.
On the same count and under the same terms, then `Cn1nc(-c2ccccc2)c(C=C(C(=O)OCc2ccccc2)C(=O)OCc2ccccc2)cc1=O`, with 1.4 µM; and `O=C(/C=C/c1cnn(Cc2ccccc2)c(=O)c1)c1ccccc1`, with 170 µM.
On the same count and under the same terms, under `CC(C)(C)OC(=O)C(=Cc1cnn(Cc2ccccc2)c(=O)c1)C(=O)OC(C)(C)C` stands 6.25 µM.
In the case of `O=C(OCc1ccccc1)C(=Cc1cn[nH]c(=O)c1)C(=O)OCc1ccccc1`, the IC50 came to 3.58 µM.
On the same count and under the same terms, then `CC(C)OC(=O)C(=Cc1cnn(C)c(=O)c1)C(=O)OC(C)C`, with 13.3 µM; and `CC(C)OC(=O)C(=Cc1cc(=O)[nH]nc1-c1ccccc1)C(=O)OC(C)C`, with 17.5 µM; and `CCOC(=O)C(=Cc1cc(=O)n(C)nc1-c1ccccc1)C(=O)OCC`, with 17 µM.
On the same count and under the same terms, under `CC(C)(C)OC(=O)C(=Cc1cc(=O)[nH]nc1-c1ccccc1)C(=O)OC(C)(C)C` stands 7.5 µM; under `CCOC(=O)C(=Cc1cn[nH]c(=O)c1)C(=O)OCC`, 8.7 µM.
In turn, `Cn1ncc(C=C(C(=O)OCc2ccccc2)C(=O)OCc2ccccc2)cc1=O` had an IC50 of 1.64 µM.
Still for that read-out and setting: under `CC(C)OC(=O)C(=Cc1cnn(Cc2ccccc2)c(=O)c1)C(=O)OC(C)C` stands 2.9 µM; under `O=C1C(CC[S+]([O-])c2ccccc2)C(=O)N(c2ccccc2)N1c1ccccc1` (configuration not stated) [SULFINPYRAZONE], 509 µM.
Take `COC(=O)C(=Cc1cc(=O)[nH]nc1-c1ccccc1)C(=O)OC`: 45 µM corresponded to half-maximal inhibition (IC50).
Still for that read-out and setting: under `Cn1nc(-c2ccccc2)c(C=C(C(=O)OC(C)(C)C)C(=O)OC(C)(C)C)cc1=O` stands 45 µM; under `N#C/C=C/c1cnn(Cc2ccccc2)c(=O)c1`, 221 µM; under `CCOC(=O)C(=Cc1cc(=O)[nH]nc1-c1ccccc1)C(=O)OCC`, 20 µM.
Same read-out and setting: under `COC(=O)C(=Cc1cnn(C)c(=O)c1)C(=O)OC` stands 15.6 µM; under `O=C(/C=C/c1cc(=O)[nH]nc1-c1ccccc1)c1ccccc1`, 142 µM.

The next test concerns Platelet. The description is as §1. Type of test: functional, cell-based.
As for `O=C(OCc1ccccc1)C(=Cc1cnn(Cc2ccccc2)c(=O)c1)C(=O)OCc1ccccc1`, the Activity entry is “Dose-dependent effect”.
The same measure, in the same setting: then `CC(C)OC(=O)C(=Cc1cc(=O)[nH]nc1-c1ccccc1)C(=O)OC(C)C`, with “Dose-dependent effect”; and `COCn1nc(-c2ccccc2)c(/C=C/C(=O)OC)cc1=O`, with “inactive”; and `COC(=O)C(=Cc1cc(=O)[nH]nc1-c1ccccc1)C(=O)OC`, with “Dose-dependent effect”.

System in a further test: not listed separately
Briefly: Inhibition of PDE3 in guinea pig ventricle. More on the design: species or system Cavia porcellus.
As to `COC(=O)C(=Cc1cc(=O)n(C)nc1-c1ccccc1)C(=O)OC`, 2000 µM corresponded to half-maximal inhibition (IC50).
`COC(=O)C(=Cc1cc(=O)[nH]nc1-c1ccccc1)C(=O)OC` came in with an IC50 of 2000 µM.
On the same count and under the same terms, then `CCOC(=O)C(=Cc1cc(=O)[nH]nc1-c1ccccc1)C(=O)OCC`, with 2000 µM.
